# Laboratory results from patent publication US20240122180A1, “FUNGICIDAL HALOMETHYL KETONES AND HYDRATES AND THEIR MIXTURES” (FMC Corporation, priority 2020, published 2024).
# Marks after values point to notes of the source that are not given here.
# How the values were obtained:
# [1] = test system: Phakopsora pachyrhizi (the causal agent of Asian soybean rust); experiment: Test A: preventive spray on soybean seedlings, visual disease rating (100 = 100% control; * 50 ppm, ** 10 ppm, *** 250 ppm); type: in vivo; conditions: 100 = 100% disease control
# Summary of the method: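 Preventive test: one day after spraying compound (acetone/water suspension, 250 ppm PEG400), seedlings received rust spore inoculum, 24 h in saturated air then 8 days in growth chamber, both at 22 °C. Disease control scored visually, 100 = complete, 0 = none, relative to untreated controls.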
# [2] = test system: Puccinia recondita f. sp. tritici (the causal agent of wheat leaf rust); experiment: Test B: preventive spray on wheat seedlings, disease rating (100 = 100% control; * 50 ppm, ** 10 ppm, *** 250 ppm); type: in vivo; conditions: 100 = 100% disease control; for pest or weed control at 10 ppm / pest or weed control at 50 ppm: Puccinia recondita
# Summary of the method: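 Preventive test: Puccinia recondita f. sp. tritici spores were inoculated one day after run-off spraying of wheat seedlings with test suspension (acetone/water 50/50, 250 ppm PEG400). After 24 h in saturated air and 6 days in a growth chamber, both at 20° C, control was scored 0–100 versus untreated plants.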
# [3] = test system: Blumeria graminis f. sp. tritici (the causal agent of wheat powdery mildew); experiment: Test E: preventive spray on wheat seedlings, visual disease rating (100 = 100% control; * 50 ppm, ** 10 ppm, *** 250 ppm); type: in vivo; conditions: 250 ppm test suspension, 100 = 100% disease control; for pest or weed control at 250 ppm: Blumeria graminis
# Summary of the method: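 Test suspension (3% acetone, acetone/water 50/50, 250 ppm PEG400) sprayed to run-off on wheat seedlings; inoculated next day with powdery mildew spore dust and kept 8 days at 20 °C. Visual rating, 100 = full and 0 = no control relative to untreated.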
# [4] = test system: Uncinula necator (the causal agent of grape powdery mildew); experiment: Test C: preventive spray on grape seedlings, disease rating (100 = 100% control; * 50 ppm, ** 10 ppm, *** 250 ppm); type: in vivo; conditions: 100 = 100% disease control
# Summary of the method: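 Grape seedlings sprayed to run-off with compound suspended in acetone/water (50/50) with 250 ppm PEG400, then inoculated next day with Uncinula necator spores. Kept at 20 °C for 12 days before disease rating, where 100 is full control and 0 none, relative to untreated controls.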
# [5] = test system: Zymoseptoria tritici (the causal agent of wheat leaf blotch); experiment: Test D: preventive spray on wheat seedlings, disease rating (100 = 100% control; * 50 ppm, ** 10 ppm, *** 250 ppm); type: in vivo; conditions: 250 ppm test suspension, 100 = 100% disease control; for pest or weed control at 250 ppm: Zymoseptoria tritici
# Summary of the method: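 Compounds first dissolved in acetone (3% of final volume), then suspended in 50/50 acetone/water with 250 ppm PEG400 and sprayed to run-off on wheat seedlings; Z. tritici spores inoculated next day. Incubated saturated at 24° C. 48 h, then 20° C. 17 days; disease control rated 0–100 versus controls.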
# [6] = test system: Phakopsora pachyrhizi (the causal agent of Asian soybean rust); experiment: Test F: Compound 32 or 64 alone and in mixtures on soybean seedlings, observed (Obsd) and Colby expected (Exp) disease control; type: in vivo; conditions: for pest or weed control at 1.422 ppm: Compound 32 1.422 ppm alone; for pest or weed control at 2.276 ppm: Compound 32 2.276 ppm alone
# [7] = Phakopsora pachyrhizi, 10 ppm test suspension, 0 = no control
# [8] = 10 ppm test suspension, 0 = no control
# [9] = 50 ppm test suspension, 0 = no control
# [10] = 10 ppm test suspension, wheat seedlings
# [11] = 50 ppm test suspension, soybean seedlings
# [12] = 50 ppm test suspension, wheat seedlings
# [13] = Phakopsora pachyrhizi, Table B-1
# [14] = Phakopsora pachyrhizi, Table C-1
# [15] = Phakopsora pachyrhizi, Table D-1
# [16] = Phakopsora pachyrhizi, Table F-1
# [17] = Phakopsora pachyrhizi, Table G-1
# [18] = Phakopsora pachyrhizi, Table H-1
# [19] = Phakopsora pachyrhizi, Table I-1
# [20] = 10 ppm test suspension, soybean seedlings
# [21] = 250 ppm test suspension, grape seedlings
compound,measurement,setting,value
OC(O)(COc1cccc(Cn2cc(Br)cn2)c1)C(F)(F)F [compound 386],pest or weed control at 10 ppm,[1]; [7],84%
same,melting point,,83.7 to 86.5 °C
same,pest or weed control at 10 ppm,[2]; [8],19%
CCOC(=O)c1cnn(Cc2cnn(CC(O)(O)C(F)(F)F)c2)c1 [compound 368],pest or weed control at 50 ppm,"[1]; Phakopsora pachyrhizi, 50 ppm test suspension, 0 = no control",0%
same,melting point,,81 to 84 °C
same,pest or weed control at 250 ppm,[3]; 0 = no control,0%
same,pest or weed control at 250 ppm,"[4]; Erysiphe necator, 250 ppm test suspension, 0 = no control",33%
same,pest or weed control at 50 ppm,[2]; [9],0%
same,pest or weed control at 250 ppm,[5]; 0 = no control,0%
"O=C(NCC1CC1)c1csc(Cc2ccc(OCC3(C(F)(F)F)OCCO3)cc2)n1 [Compound 71, N-(cyclopropylmethyl)-2-[[4-[[2-(trifluoromethyl)-1,3-dioxolan-2-yl]methoxy]phenyl]-methyl]thiazole-4-carboxamide]",melting point,,88 to 92 °C
same,pest or weed control at 10 ppm,[2]; [10],96%
CCOC(=O)c1cnn(Cc2c(F)c(F)c(OCC3(C(F)(F)F)OCCO3)c(F)c2F)c1 [compound 392],pest or weed control at 10 ppm,[1]; [7],97%
same,melting point,,59 to 62 °C
same,pest or weed control at 10 ppm,[2]; [8],19%
"CCO/C(=C\Oc1ccc(Cn2cc(C(=O)OCc3ccccc3)cn2)cc1)C(F)(F)F [Compound 186, phenylmethyl 1-[[4-[[(1Z)-2-ethoxy-3,3,3-trifluoro-1-propen-1-yl]oxy]phenyl]methyl]-1H-pyrazole-4-carboxylate]",melting point,,63 to 67 °C
same,pest or weed control at 250 ppm,[3]; wheat seedlings,84%
same,pest or weed control at 10 ppm,[2]; [10],0%
same,pest or weed control at 250 ppm,[5]; wheat seedlings,9%
CC(=O)c1ccc(OCC(O)(O)C(F)(F)F)cc1 [compound 80],Test A disease control rating,[1]; [11],99%
same,Test E disease control rating,[3]; wheat seedlings,99*** %
same,Test C disease control rating,"[4]; 50 ppm test suspension, grape seedlings",0%
same,Test B disease control rating,[2]; [12],100%
same,Test D disease control rating,[5]; wheat seedlings,96*** %
"CCOC(=O)c1cnn(Cc2ccc(OCC3(C(F)(F)F)OCCO3)cc2)c1 [Compound 32, ethyl 1-[[4-[[2-(trifluoromethyl)-1,3-dioxolan-2-yl]methoxy]phenyl]methyl]-1H-pyrazole-4-carboxylate]",pest or weed control at 250 ppm,[3]; wheat seedlings,97%
same,pest or weed control at 1.422 ppm,[6]; Table E-1,78%
same,pest or weed control at 2.276 ppm,[6]; Table E-1,80%
same,pest or weed control at 1.422 ppm,[6]; [13],55%
same,pest or weed control at 1.422 ppm,[6]; [14],39%
same,pest or weed control at 1.422 ppm,[6]; [15],52%
same,pest or weed control at 1.422 ppm,[6]; [16],75%
same,pest or weed control at 1.422 ppm,[6]; [17],39%
same,pest or weed control at 1.422 ppm,[6]; [18],69%
same,pest or weed control at 1.422 ppm,[6]; [19],63%
same,pest or weed control at 2.276 ppm,[6]; [13],64%
same,pest or weed control at 2.276 ppm,[6]; [14],44%
same,pest or weed control at 2.276 ppm,[6]; [15],60%
same,pest or weed control at 2.276 ppm,[6]; [16],77%
same,pest or weed control at 2.276 ppm,[6]; [17],61%
same,pest or weed control at 2.276 ppm,[6]; [18],63%
same,pest or weed control at 2.276 ppm,[6]; [19],71%
same,pest or weed control at 10 ppm,"[4]; Erysiphe necator, 10 ppm test suspension (**), grape seedlings",100%
same,pest or weed control at 50 ppm,[2]; [12],68%
same,pest or weed control at 250 ppm,[5]; wheat seedlings,89%
C=CCOC(=O)c1cnn(Cc2ccc(O/C=C(\OCC)C(F)(F)F)cc2)c1 [compound 246],Test A disease control rating,[1]; [20],100%
same,Test E disease control rating,[3]; wheat seedlings,90*** %
same,Test C disease control rating,[4]; [21],85*** %
same,Test B disease control rating,[2]; [10],0%
same,Test D disease control rating,[5]; wheat seedlings,12*** %
CCOC(=O)c1cnn(Cc2ccc(OCC(O)(O)C(F)(F)F)cc2F)c1 [Compound 376],Test A disease control rating,[1]; [9],100%
same,Test E disease control rating,[3]; 0 = no control,99*** %
same,Test C disease control rating,[4]; [9],36%
same,Test B disease control rating,[2]; [9],92%
same,Test D disease control rating,[5]; 0 = no control,98*** %
CCO/C(=C\Oc1ccc(Cn2cc(C(=O)OCCOC)cn2)cc1)C(F)(F)F [compound 222],Test A disease control rating,[1]; [20],100%
same,Test E disease control rating,[3]; wheat seedlings,90*** %
same,Test C disease control rating,[4]; [21],38*** %
same,Test B disease control rating,[2]; [10],0%
same,Test D disease control rating,[5]; wheat seedlings,17*** %
CCO/C(=C\Oc1ccc(Cn2cc(C(=O)OCC(C)C)cn2)cc1)C(F)(F)F [compound 219],Test A disease control rating,[1]; [20],100%
same,Test E disease control rating,[3]; wheat seedlings,83*** %
same,Test C disease control rating,[4]; [21],92*** %
same,Test B disease control rating,[2]; [10],0%
same,Test D disease control rating,[5]; wheat seedlings,0*** %
O=C(NCC1CC1)c1cnc(Cc2ccc(OCC(O)(O)C(F)(F)F)cc2)o1 [compound 247],Test A disease control rating,[1]; [20],13%
same,Test E disease control rating,[3]; wheat seedlings,21*** %
same,Test C disease control rating,[4]; [21],21*** %
same,Test B disease control rating,[2]; [10],0%
same,Test D disease control rating,[5]; wheat seedlings,79*** %
CCO/C(=C\Oc1ccc(Cn2cc(C(=O)NC(C)C)cn2)cc1)C(F)(F)F [compound 118],Test A disease control rating,[1]; [11],100%
same,Test E disease control rating,[3]; wheat seedlings,76*** %
same,Test C disease control rating,[4]; [21],77*** %
same,Test B disease control rating,[2]; [12],0%
same,Test D disease control rating,[5]; wheat seedlings,13*** %
